Measured values taken from US8637461B2, “Method of diagnosing and treating oxidative stress-impaired wound healing” (Kuwait University, priority 2011, dated 2014).

How the values were obtained:
dermal fibroblasts = assay: BrdU cell proliferation assay in fibroblasts; format: cell-based, rat; conditions: fibroblasts with diabetic, inflammatory or hypercortisolemia phenotypes; ROS suppressors
Protocol: (§1) Primary dermal fibroblasts were obtained from dorsal skin of female Goto Kakizaki (GK, age 12-15 months) rats, a model for non-obese type 2 diabetes, and their Wistar control counterparts. After sterilization in povidine solution, rat skin was washed in sterile water and rinsed in 70% ethanol in PBS. Epidermis and dermis were separated following overnight incubation in 0.25% trypsine/EDTA at 4 C. Dermis was cut into small pieces and incubated in Dulbecco's modified Eagle medium (DMEM; Invitrogen) containing collagenase (250 U/ml; Sigma) for thirty min at 37 C in 5% CO2 with constant agitation. The sections were triturated vigorously to release fibroblasts, which were collected by centrifugation. The cell pellet was washed two times with PBS, re-suspended in complete medium (DMEM supplemented with 10% fetal calf serum, penicillin (100 U/ml), streptomycin (100 μg/ml)), 2 mM L-glutamine and 10 mM HEPES) and then cultured under a standard condition.
A hypercortisolemic state was mimicked by exposing control fibroblasts to dexamethasone (Dexa, Sigma) administered at 20 ng/ml every other day for a duration of 8 days. Similarly, the state of low-grade inflammation in fibroblasts was recapitulated experimentally by exposing these cells to TNF-α (4 ng/ml every day for 4 days). […] The concentration of IGF-1 (50 ng/ml, Peprotech) was determined by prior dose response experiment.
The proliferation and collagen synthesis of cultured fibroblasts were determined using, respectively the 5-bromo-2-deoxyuridine (BrdU) incorporation into DNA and a radiolabelled proline uptake assay.
Cells were seeded into 96-microtiter plates at a concentration of 1.5×10^4 and allowed to adhere overnight in DMEM supplemented with 10% FCS. After arrest by incubation in DMEM supplemented with 0.5% FCS for 24 hrs, cells were exposed to IGF-I (50 ng/ml) in DMEM containing […] 5-bromo-2-deoxyuridine (BrdUrd). Incorporation of BrdUrd into DNA was estimated using 5-bromo-2-deoxyuridine labeling and detection kit (Roche Applied Science) according to the manufacturer's instructions.

protein-bound carbonyls = assay: Protein-bound carbonyl ELISA in fibroblasts; format: cell-based, rat; conditions: diabetic, TNF-α- or dexamethasone-exposed cells; EUK-134
Protocol: as §1, with “The cell pellet was washed two times with PBS, re-suspended in complete medium (DMEM supplemented with 10% fetal calf serum, penicillin (100 U/ml), streptomycin (100 μg/ml)), 2 mM L-glutamine and 10 mM HEPES) and then cultured under a standard condition.” left out
(§2) A hypercortisolemic state was mimicked by exposing control fibroblasts to dexamethasone (Dexa, Sigma) administered at 20 ng/ml every other day for a duration of 8 days. […] The concentration of IGF-1 (50 ng/ml, Peprotech) was determined by prior dose response experiment.
Protein-bound carbonyl levels in fibroblasts, a marker of cumulative oxidative stress, were determined using a procedure in which a sensitive ELISA-based assay was used to measure total protein-bound carbonyls using oxidized bovine serum albumin (BSA) as standard. […]

IRS-1 = IRS-1 Ser307 phosphorylation in dermal fibroblasts; format: cell-based, rat; conditions: diabetic, TNF-α- or dexamethasone-exposed cells; EUK-134
Protocol: as §1, with “The cell pellet was washed two times with PBS, re-suspended in complete medium (DMEM supplemented with 10% fetal calf serum, penicillin (100 U/ml), streptomycin (100 μg/ml)), 2 mM L-glutamine and 10 mM HEPES) and then cultured under a standard condition.” left out
as §2
Levels/activities of key intracellular molecules in the IGF-1 signaling cascade including IRS-1, IRS-1 Tyr-p-612, PI3K-p85α, IRS-1 Ser-p (307), PI3K, Akt, p-Akt, INK and p-JNK were assessed using western blotting/immunoprecipitation and commercially available ELISA-based assays. […]

[1] = Body weight and fasting plasma parameters in diabetic and hypercortisolemic rats; format: in vivo, rat
Protocol: All animal procedures were performed in accordance with the NIH Guidance for the Care and Use of Laboratory Animals. The current study used, respectively the GK and Dexamethasone-treated rats as models for diabetes and hypercortisolemia. Dexamethasone was administered subcutaneously at a dose of 2.5 μg/kg body weight in the morning (8:00 AM) and in the evening (8:00 PM) for a duration of four weeks before wounding and this form of therapy continued during the course of healing. […] Weight and age-matched female Wistar rats (Kuwait University breeding colony) served as the corresponding controls. All of the animals were maintained under standard conditions with 12 hours on/off light cycle, commercial diet, and water ad libitum. GK rats destined for wounding were initially matched with regard to body weight (e.g., 230 to 250 g), and plasma levels of glucose, free fatty acids and insulin. These indices are commonly used to reflect the severity of the diabetic state.
Animals used for IGF-1 sensitivity (n=6/group) and wound healing (n=8) studies were partitioned into five study groups including control, diabetic, hypercortisolemic, diabetic+EUK and hypercortisolemic+EUK. The EUK-134 was administered for duration of four weeks before wound induction and it continued during the course of healing.

[2] = dexamethasone-treated (hypercortisolemic) rats + EUK-134 12.5 mg/kg ip every other day
[3] = diabetic (GK) rats + EUK-134 12.5 mg/kg ip every other day

COc1cccc(C=NCCN=Cc2cccc(OC)c2[O-])c1[O-].[Cl-].[Mn+3] [EUK-134]
impairment in key fibroblast functions (collagen synthesis, cell proliferation, migration, contraction) (dermal fibroblasts): ameliorates | carbonylated protein accumulation (protein-bound carbonyls): returned to approximately normal | phosphorylation of IRS-1 at Ser307 (IRS-1): diminishes Ser307 phosphorylation to levels comparable to the basal level in normal fibroblasts | FBG (fasting blood glucose) [1, 2]: 81 ± 12 mg/dL | FFA (free fatty acid) [1, 2]: 327 ± 16 µM | FPI (fasting plasma insulin) [1, 2]: 0.58 ± 0.052 ng/mL | FBG (fasting blood glucose) [1, 3]: 122 ± 18 mg/dL | FFA (free fatty acid) [1, 3]: 353 ± 18 µM | FPI (fasting plasma insulin) [1, 3]: 0.66 ± 0.05 ng/mL | abnormalities regarding lipid and carbohydrate profiles ([1]; diabetic and hypercortisolemic rats, chronic treatment with ROS suppressors): ameliorated
